Laboratory results: US20230398130A1, “METHODS AND COMPOSITIONS FOR DIFFERENTIATING STEM CELLS” (Massachusetts Institute of Technology, priority 2020, published 2023)

Key:
ISC-enriched organoids [1] = assay: Primary screen, 384-well 2.5-D organoid differentiation (ENR+CD, 6 days, Target Selective Inhibitor Library, vs whole-plate median): ATP (CellTiter-Glo 3D, CTG); details: for Dose.FC.CTG / Z.CTG (standard z score) / Dose.FC.CTG (log 2 fold change): primary screen; for Dose.FC.CTG: FC vs plate median; for Z.CTG: standard z score of FC; for Dose.FC.CTG (log 2 fold change): vs plate median
ISC-enriched organoids [2] = assay: Primary screen, 384-well 2.5-D organoid differentiation (ENR+CD, 6 days): basal lysozyme secretion (LYZ.NS); assay type: cell-based, murine; details: for Dose.FC.LYZ.NS / Z.LYZ.NS (standard z score) / Dose.FC.LYZ.NS (log 2 fold change): primary screen; for Dose.FC.LYZ.NS: FC vs plate median; for Z.LYZ.NS: standard z score of FC; for Dose.FC.LYZ.NS (log 2 fold change): vs plate median
Excerpt: (§1) High-throughput screening.

ISC-enriched organoids [3] = assay: Primary screen, 384-well 2.5-D organoid differentiation (ENR+CD, 6 days): carbachol-induced lysozyme secretion (LYZ.S); assay type: cell-based, murine; details: primary screen; for Dose.FC.LYZ.S: FC vs plate median; for Dose.FC.LYZ.S (log 2 fold change): vs plate median
Excerpt: as §1

| Structure (SMILES) | Dose.FC.CTG (ISC-enriched organoids [1]; Dose 0.08 uM) | Z.CTG (ISC-enriched organoids [1]; Dose 0.08 uM) | Dose.FC.CTG (ISC-enriched organoids [1]; Dose 0.40 uM) | Z.CTG (ISC-enriched organoids [1]; Dose 0.40 uM) | Dose.FC.CTG (ISC-enriched organoids [1]; Dose 2.00 uM) | Z.CTG (ISC-enriched organoids [1]; Dose 2.00 uM) | Dose.FC.CTG (ISC-enriched organoids [1]; Dose 10.00 uM) | Z.CTG (ISC-enriched organoids [1]; Dose 10.00 uM) | Dose.FC.LYZ.NS (ISC-enriched organoids [2]; Dose 0.08 uM) | Z.LYZ.NS (ISC-enriched organoids [2]; Dose 0.08 uM) | Dose.FC.LYZ.NS (ISC-enriched organoids [2]; Dose 0.40 uM) | Z.LYZ.NS (ISC-enriched organoids [2]; Dose 0.40 uM) | Dose.FC.LYZ.NS (ISC-enriched organoids [2]; Dose 2.00 uM) | Z.LYZ.NS (ISC-enriched organoids [2]; Dose 2.00 uM) | Dose.FC.LYZ.NS (ISC-enriched organoids [2]; Dose 10.00 uM) | Z.LYZ.NS (ISC-enriched organoids [2]; Dose 10.00 uM) | Dose.FC.LYZ.S (ISC-enriched organoids [3]; Dose 0.08 uM) | Dose.FC.LYZ.S (ISC-enriched organoids [3]; Dose 0.40 uM) | Dose.FC.LYZ.S (ISC-enriched organoids [3]; Dose 2.00 uM) | Dose.FC.LYZ.S (ISC-enriched organoids [3]; Dose 10.00 uM) | other results |
| --- | --- | --- | --- | --- | --- | --- | --- | --- | --- | --- | --- | --- | --- | --- | --- | --- | --- | --- | --- | --- | --- |
| Cc1[nH]c2ccccc2c1CCNCc1ccc(/C=C/C(=O)NO)cc1 [Panobinostat (LBH589)] | 0.295 log 2 fold change | 0.706 | 0.212 log 2 fold change | 0.506 | −0.537 log 2 fold change | −1.283 | −1.003 log 2 fold change | −2.395 | 0.002 log 2 fold change | 0.014 | −0.027 log 2 fold change | −0.232 | −0.153 log 2 fold change | −1.329 | −0.217 log 2 fold change | −1.891 | −0.034 log 2 fold change | −0.042 log 2 fold change | −0.285 log 2 fold change | −0.320 log 2 fold change | – |
| O=C(NNc1ccccc1)c1ccncc1 [PluriSIn #1 (NSC 14613)] | −0.146 log 2 fold change | −0.349 | −0.095 log 2 fold change | −0.226 | −0.433 log 2 fold change | −1.035 | −0.853 log 2 fold change | −2.038 | 0.083 log 2 fold change | 0.720 | 0.004 log 2 fold change | 0.039 | −0.107 log 2 fold change | −0.929 | −0.284 log 2 fold change | −2.475 | 0.057 log 2 fold change | −0.007 log 2 fold change | −0.133 log 2 fold change | −0.372 log 2 fold change | – |
| CC(C)(C)c1cc(NC(=O)Nc2ccc(-c3cn4c(n3)sc3cc(OCCN5CCOCC5)ccc34)cc2)no1 [Quizartinib (AC220)] | – | – | – | – | – | – | – | – | – | – | – | – | – | – | – | – | – | – | – | – | Z.CTG (standard z score) (ISC-enriched organoids [1]; Dose 0.08 uM): 0.838; Dose.FC.CTG (log 2 fold change) (ISC-enriched organoids [1]; Dose 0.08 uM): 0.351; Z.CTG (standard z score) (ISC-enriched organoids [1]; Dose 0.40 uM): 0.355; Dose.FC.CTG (log 2 fold change) (ISC-enriched organoids [1]; Dose 0.40 uM): 0.149; Z.CTG (standard z score) (ISC-enriched organoids [1]; Dose 2.00 uM): −0.841; Dose.FC.CTG (log 2 fold change) (ISC-enriched organoids [1]; Dose 2.00 uM): −0.352; Z.CTG (standard z score) (ISC-enriched organoids [1]; Dose 10.00 uM): −1.539; Dose.FC.CTG (log 2 fold change) (ISC-enriched organoids [1]; Dose 10.00 uM): −0.644; Z.LYZ.NS (standard z score) (ISC-enriched organoids [2]; Dose 0.08 uM): 0.836; Dose.FC.LYZ.NS (log 2 fold change) (ISC-enriched organoids [2]; Dose 0.08 uM): 0.096; Z.LYZ.NS (standard z score) (ISC-enriched organoids [2]; Dose 0.40 uM): 0.341; Dose.FC.LYZ.NS (log 2 fold change) (ISC-enriched organoids [2]; Dose 0.40 uM): 0.039; Z.LYZ.NS (standard z score) (ISC-enriched organoids [2]; Dose 2.00 uM): −0.452; Dose.FC.LYZ.NS (log 2 fold change) (ISC-enriched organoids [2]; Dose 2.00 uM): −0.052; Z.LYZ.NS (standard z score) (ISC-enriched organoids [2]; Dose 10.00 uM): −1.505; Dose.FC.LYZ.NS (log 2 fold change) (ISC-enriched organoids [2]; Dose 10.00 uM): −0.173; Dose.FC.LYZ.S (log 2 fold change) (ISC-enriched organoids [3]; Dose 0.08 uM): 0.154; Dose.FC.LYZ.S (log 2 fold change) (ISC-enriched organoids [3]; Dose 0.40 uM): 0.083; Dose.FC.LYZ.S (log 2 fold change) (ISC-enriched organoids [3]; Dose 2.00 uM): −0.077; Dose.FC.LYZ.S (log 2 fold change) (ISC-enriched organoids [3]; Dose 10.00 uM): −0.200 |
| O=C(NCc1cccc(O)c1)Nc1nc(-c2ccncc2)cs1 [RKI-1447] | – | – | – | – | – | – | – | – | – | – | – | – | – | – | – | – | – | – | – | – | Z.CTG (standard z score) (ISC-enriched organoids [1]; Dose 0.08 uM): −0.948; Dose.FC.CTG (log 2 fold change) (ISC-enriched organoids [1]; Dose 0.08 uM): −0.397; Z.CTG (standard z score) (ISC-enriched organoids [1]; Dose 0.40 uM): −0.441; Dose.FC.CTG (log 2 fold change) (ISC-enriched organoids [1]; Dose 0.40 uM): −0.184; Z.CTG (standard z score) (ISC-enriched organoids [1]; Dose 2.00 uM): −0.540; Dose.FC.CTG (log 2 fold change) (ISC-enriched organoids [1]; Dose 2.00 uM): −0.226; Z.CTG (standard z score) (ISC-enriched organoids [1]; Dose 10.00 uM): −0.816; Dose.FC.CTG (log 2 fold change) (ISC-enriched organoids [1]; Dose 10.00 uM): −0.342; Z.LYZ.NS (standard z score) (ISC-enriched organoids [2]; Dose 0.08 uM): −0.055; Dose.FC.LYZ.NS (log 2 fold change) (ISC-enriched organoids [2]; Dose 0.08 uM): −0.006; Z.LYZ.NS (standard z score) (ISC-enriched organoids [2]; Dose 0.40 uM): −0.803; Dose.FC.LYZ.NS (log 2 fold change) (ISC-enriched organoids [2]; Dose 0.40 uM): −0.092; Z.LYZ.NS (standard z score) (ISC-enriched organoids [2]; Dose 2.00 uM): −0.077; Dose.FC.LYZ.NS (log 2 fold change) (ISC-enriched organoids [2]; Dose 2.00 uM): −0.009; Z.LYZ.NS (standard z score) (ISC-enriched organoids [2]; Dose 10.00 uM): −1.594; Dose.FC.LYZ.NS (log 2 fold change) (ISC-enriched organoids [2]; Dose 10.00 uM): −0.183; Dose.FC.LYZ.S (log 2 fold change) (ISC-enriched organoids [3]; Dose 0.08 uM): −0.056; Dose.FC.LYZ.S (log 2 fold change) (ISC-enriched organoids [3]; Dose 0.40 uM): −0.064; Dose.FC.LYZ.S (log 2 fold change) (ISC-enriched organoids [3]; Dose 2.00 uM): −0.017; Dose.FC.LYZ.S (log 2 fold change) (ISC-enriched organoids [3]; Dose 10.00 uM): −0.297 |
